The record followed here is article PMC11762957, “Rescue of Mutant CFTR Channel Activity by Investigational Co-Potentiator Therapy” (Biomedicines, 2025).

The target of the experiment is T1, p.Arg334Trp-CFTR (Homo sapiens, UniProt P13569, R334W).
T1 construct: expressed in transfected cells
The experiment is described as follows: Micro-Ussing chamber measurements, polarized CFBE41o- monolayers expressing p.Arg334Trp-CFTR. The class given is cell-based. The note with it: after Fsk 0.128 μM. The procedure: CFBE41o^− cells expressing p.Arg334Trp-CFTR were seeded onto collagen IV-coated Snap-well filter inserts (#734-1646, Corning, New York, NJ, USA) to establish polarized monolayers. When the transepithelial electrical resistance of cells was ≥1000 Ω·cm^2, micro-Ussing chambers were mounted to measure transepithelial voltage (Vte) and transepithelial resistance (Rte), as noted before. Briefly, after the equilibration period, baseline values were recorded and compounds were added sequentially: Fsk (0.128 μM), test compound(s), and Inh-172 (30 μM). Recorded Vte and Rte were used to calculate the equivalent short-circuit current (Isceq) using Ohm’s law: Isc = Vte/Rte.
Next, we validated the data obtained by the HS-YFP assay by measuring short-circuit currents in the polarized monolayers of CFBE41o^− cells expressing p.Arg334Trp-CFTR to assess the alterations in the CFTR-mediated Cl^− current. Upon the activation of the cAMP-dependent CFTR-mediated Cl^− transport by Fsk, there was a small lumen-negative response, indicating the residual function of p.Arg334Trp-CFTR (Figure 3A–F).

T1 sequence (P13569 whole entry R334W): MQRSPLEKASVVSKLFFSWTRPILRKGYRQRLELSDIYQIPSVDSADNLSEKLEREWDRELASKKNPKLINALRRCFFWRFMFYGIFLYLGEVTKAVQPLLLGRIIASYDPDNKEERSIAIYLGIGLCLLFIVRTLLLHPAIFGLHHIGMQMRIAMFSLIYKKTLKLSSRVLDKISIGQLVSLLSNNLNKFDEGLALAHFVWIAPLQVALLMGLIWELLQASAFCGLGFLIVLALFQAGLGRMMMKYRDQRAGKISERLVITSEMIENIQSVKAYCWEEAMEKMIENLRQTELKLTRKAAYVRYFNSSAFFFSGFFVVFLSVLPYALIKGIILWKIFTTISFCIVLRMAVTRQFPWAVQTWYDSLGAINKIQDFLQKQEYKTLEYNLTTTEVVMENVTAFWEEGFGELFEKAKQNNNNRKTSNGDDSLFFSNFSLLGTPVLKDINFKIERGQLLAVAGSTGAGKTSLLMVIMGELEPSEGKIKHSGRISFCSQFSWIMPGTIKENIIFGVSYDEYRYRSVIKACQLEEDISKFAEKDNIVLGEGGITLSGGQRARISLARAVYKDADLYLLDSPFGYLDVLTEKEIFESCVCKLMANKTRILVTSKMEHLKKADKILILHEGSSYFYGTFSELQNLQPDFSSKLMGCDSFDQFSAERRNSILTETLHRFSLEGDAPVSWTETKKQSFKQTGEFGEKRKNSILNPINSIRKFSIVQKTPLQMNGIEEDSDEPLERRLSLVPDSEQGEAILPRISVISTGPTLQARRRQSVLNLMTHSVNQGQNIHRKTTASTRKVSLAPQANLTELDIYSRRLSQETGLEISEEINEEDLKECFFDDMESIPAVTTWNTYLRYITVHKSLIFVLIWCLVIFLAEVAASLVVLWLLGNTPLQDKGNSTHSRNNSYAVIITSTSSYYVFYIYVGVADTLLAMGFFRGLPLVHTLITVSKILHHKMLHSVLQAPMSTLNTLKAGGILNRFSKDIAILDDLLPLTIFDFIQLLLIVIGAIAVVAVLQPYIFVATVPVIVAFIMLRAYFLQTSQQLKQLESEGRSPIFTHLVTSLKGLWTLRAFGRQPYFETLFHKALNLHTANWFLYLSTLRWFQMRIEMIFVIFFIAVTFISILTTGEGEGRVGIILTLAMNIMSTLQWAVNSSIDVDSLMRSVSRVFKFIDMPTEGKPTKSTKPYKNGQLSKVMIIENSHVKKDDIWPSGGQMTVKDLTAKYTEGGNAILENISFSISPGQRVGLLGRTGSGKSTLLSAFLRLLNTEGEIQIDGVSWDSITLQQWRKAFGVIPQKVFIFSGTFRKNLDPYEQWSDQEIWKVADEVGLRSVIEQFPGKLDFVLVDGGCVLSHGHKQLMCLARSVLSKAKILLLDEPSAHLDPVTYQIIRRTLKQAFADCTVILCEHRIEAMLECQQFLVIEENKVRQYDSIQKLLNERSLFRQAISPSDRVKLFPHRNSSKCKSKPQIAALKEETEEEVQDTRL

With `CCOC(=O)c1ccc(-n2cc(C(O)c3ccc(Br)cc3)nn2)cc1` (centres unmarked) [LSO-150], the “Isceq, co-administration with VX-770” value (VX-770 3 μM + LSO-150 3 μM or LSO-153 5 μM, vs single potentiator) is on record as “further response”. The “Isceq (equivalent short-circuit current), single potentiator” value (acute, LSO-150 3 μM, LSO-153 5 μM, VX-770 3 μM, vs DMSO) was “increase in Isceq”.
